Consider 1 compound from EP0385952A2, “Use of a naphthalenmethanamino derivative as antiinflammatory agent and pharmaceutical compositions containing it” (SANDOZ AG, priority 1989, dated 1990).

The structures appear in SMILES notation.

The subject of assay [1] is human cell line Mono-Mac-6. The assay can be described thus: LPS-induced NAP1/IL-8, αTNF- and IL-1β-mRNA accumulation (RNA blotting). In kind it is cell-based. As for the experimental part: Human Mono-Mac-6 cells, which have many of the phenotypic and functional characteristics of mature peripheral blood monocytes [H. Ziegler et al, Int. J. Cancer 41 (1988) 456-461] are grown up to 10⁶ cells/ml im RPMI 1640 medium supplemented with 10 % FCS, 1 % pen/strep and 0.25 % amphotericin. In each of 6 activation experiments 10⁷ cells are incubated for 4 hours at 37°C and 5 % CO₂. LPS is used in a concentration of 1 µg/ml and the test substance in concentrations of 10⁻⁵ M to 10⁻⁷ M.
After induction times the cells are pelleted [5 min, 1200 rpm, room temperature]. Total cellular RNA is extracted from the pelleted cells using the guanidinium isothiocyanate/cesium chloride method of J.M. Chirgwin et al., Biochemistry 18 (1979) 5294-5299. 10 µg samples of the extracted RNA are size-fractionated by 1.2 % formaldehyde agarose gel electrophoresis [T. Maniatis et al., Molecular Cloning: A Laboratory Manual, Cold Spring Harbour, New York (1982) p. 187-206], transferred to synthetic membranes (Hybond N, Amersham) with 20xSSC (1xSSC is 150 mM NaCl, 15 mM sodium citrate, pH 7.0) overnight. The filters are baked for 2 hours at 65°C and prehybridized for 4 hours at 65°C in 5xSSC, 10x Denhardt's solution (1x Denhardt's solution is 0.02 % bovine serum albumin, 0.02 % polyvinyl pyrrolidone, 0.02 % ficoll), 10 % dextrane sulphate, 20 mM sodium phosphate pH 7.0, 7 % SDS, 100 µg/ml sonicated salmon sperm DNA, and 100 µg/ml polyA. ³²P-labelled synthetic NAP1/IL8, αTNF and IL-1β oligonucleotide probes are used as the hybridization probes. Hybridization is performed at 65°C in the pre-hybridization buffer containing the labelled probe for 16 hours. The blots are washed once in 5 % SDS, 3xSSC, 10x Denhardt's solution, 20 mM sodium phosphate pH 7.0 for 30 minutes at 65°C, and once in 1xSSC, 1 % SDS at 65°C for 30 minutes. Filters are exposed at -70°C to KODAK XAR-5 films using intensifying screens. After washing for 30 minutes in 0.1 % SDS at 65°C, blots are reused for a second hybridization with a β-actin specific oligonucleotide probe to quantitate the mRNA amounts.

For assay [2], the system named is platelets. The assay is described as follows: Thromboxane B₂ production in platelets. In kind it is cell-based. The settings on record: Platelet, read-out: IC₅₀ for thromboxane B₂ production.
Where [3] appears, read: remaining level, 10.0 µM, LPS 1 µg/ml, 4 hours.

Regarding `CN(C/C=C/c1ccc(O)cc1)Cc1cccc2ccccc12` [compound of the invention, (E)-N-methyl-N-[3-(4-hydroxyphenyl)-2-propenyl]-1-naphthalene-methanamine], the “concentration inhibiting lps-induced transcription of nap-1/il-8, αtnf and il-iβ” value in assay [1] (mono-mac 6 cell line, summary statement) was “about 10 µm”. In assay [1] (setting [3]), the “LPS-induced IL-1β-mRNA accumulation decreased to” value is 50%, the “LPS-induced NAP1/IL-8-mRNA accumulation decreased to” value came to 20% and the “LPS-induced αTNF-mRNA accumulation decreased to” value is reported as 10%. Also, the IC50 in assay [2] was 100 µM.
